Measurements from patent US20180000771A1, “AGENT FOR PREVENTING AND/OR TREATING AMYOTROPHIC LATERAL SCLEROSIS” (KYOTO UNIVERSITY, priority 2015, published 2018).

What was measured:
[1] = system: motoneuron cells derived from iPS cells having SOD1-L144FVX mutation; conditions: 168 h
[2] = system: motoneuron cells derived from iPS cells of ALS patients having C9orf72 mutation; test: survival of motoneuron cells induced from ALS patient iPS cells (C9orf72 mutation); format: cell-based, human; conditions: added on day 7, survived motoneuron cells counted on day 14
[3] = system: motoneuron cells derived from iPS cells of sporadic ALS patients; test: survival of motoneuron cells induced from sporadic ALS patient iPS cells; format: cell-based, human; conditions: for cell survival rate improvement, sporadic / cell survival rate improving effect, significance, sporadic: added on day 7, survived motoneuron cells counted on day 14
[4] = system: motoneuron cells derived from iPS cells having SOD1-L144FVX mutation; test: survival of motoneuron cells induced from ALS patient iPS cells (SOD1 mutation); conditions: for cell survival rate improvement, SOD1 mutation / cell survival rate improving effect, significance, SOD1 mutation: added on day 7, survived motoneuron cells counted on day 14
[5] = system: nerve cell derived from iPS cell having SOD1-L144FVX mutation; test: neurite length of nerve cells derived from iPS cells; format: cell-based, human; conditions: 1 μM, cultured for 48 hr
Method: In detail, small clumps (diameter 40-100 μm) of iPS cell colonies were subjected to a filter treatment with Cell Strainer (BD Falcon), and cultured for 10 days in N2B27 medium [DMEM/F12, Neurobasal, N2 supplement, B27 supplement, L-Gln] added with 100 ng/ml human recombinant Noggin (R&D systems) and 1 μM SB431542 (Sigma) in a culture dish coated with poly-L-lysine (Sigma)/Laminin (BD Falcon) (PLL/LM). Then, the colonies were dissociated into small clumps with 200 U/ml collagenase added with CaCl2, and transferred into a culture dish coated with PLL/ECL (Millipore). After 7 days of culture, the cells were dissociated with Accutase (Innovative Cell Technologies), and cultured in a culture dish coated with PLL/ECL for 7 days (24 d). Finally, the cells dissociated with Accutase and selected by a 40 μm cell strainer (BD Falcon) were counted, cultured for 31 days (56d) in N2B27 medium added with 10 ng/ml BDNF, GDNF, and NT-3 (R&D systems) in a culture dish coated with PLL/LM/Fibronectin (Millipore) to give nerve cells from the iPS cells.

[6] = system: Erk; test: Western blot of Erk phosphorylation in nerve cells; format: cell-based, human; conditions: 1 μM, nerve cells having SOD1 mutation
Method: (§1) It is known that phosphorylation of Erk is promoted in nerve cells having mutation SOD1. To examine the mechanism of these candidate medicaments, phosphorylation of Erk was examined by Western blot method. The Western blot method included dissolving cells in RIPA buffer containing 0.1% SDS, 150 mM NaCl, 1% NP-40, 0.5% deoxycholate, 50 mM Tris-HCl (pH 8.0), protease inhibitor (Roche) and phosphatase inhibitor (Roche), centrifugation, measurement of protein concentration, addition of 20 μg amount of protein to each lane, and electrophoresis in 10-20% polyacrylamide gel. After blotting to Immobilon-P membrane (Millipore), the cells were stained with antibodies against Erk, phosphorylated Erk, c-Abl and phosphorylated c-Abl and detected.

[7] = system: c-abl; test: Western blot of c-abl phosphorylation in nerve cells; format: cell-based, human; conditions: 1 μM, nerve cells having SOD1 mutation
Method: as §1

| Structure (SMILES) | MN index (motoneuron cell survival number ratio as compared to negative control) [1] | cell survival rate improvement, C9orf72 mutation [2] | cell survival rate improving effect, significance, C9orf72 mutation [2] | cell survival rate improvement, sporadic [3] | cell survival rate improving effect, significance, sporadic [3] | cell survival rate improvement, SOD1 mutation [4] | cell survival rate improving effect, significance, SOD1 mutation [4] | efficacy for sporadic ALS (conclusion from Tables 5 and 6) [3] | length of neuritis [5] | phosphorylation of Erk [6] | phosphorylation of c-abl [7] | efficacy for ALS having SOD1 mutation (conclusion from Tables 5 and 6) [4] | dose correlation in the protection effect on motoneuron cell having SOD1 mutation ([4]; FIG. 2, FIG. 6) |
| --- | --- | --- | --- | --- | --- | --- | --- | --- | --- | --- | --- | --- | --- |
| CN(C)CCCn1cc(C2=C(c3c[nH]c4ccccc34)C(=O)NC2=O)c2ccccc21 [Bisindolyl-maleimide I, Bisindolylmaleimide I] | 7.96 | – | – | – | – | – | – | – | – | – | – | – | – |
| CCN(CC)CCNC(=O)c1c(C)[nH]c(/C=C2\C(=O)Nc3ccc(F)cc32)c1C [Sunitinib] | – | ○ (cell survival rate improvement not less than 20%) | ○ (significant difference (p < 0.05)) | ○ (cell survival rate improvement not less than 20%) | ○ (significant difference (p < 0.05)) | ○ (cell survival rate improvement not less than 20%) | ○ (significant difference (p < 0.05)) | – | – | – | – | – | – |
| COc1cc2nccc(Oc3ccc(NC(=O)Nc4cc(C)on4)c(Cl)c3)c2cc1OC [Tivozanib] | – | x (cell survival rate improvement less than 20%) | ○ (significant difference (p < 0.05)) | ○ (cell survival rate improvement not less than 20%) | ○ (significant difference (p < 0.05)) | ○ (cell survival rate improvement not less than 20%) | ○ (significant difference (p < 0.05)) | higher efficacy | elongation of neuritis | decreased | decreased | higher efficacy | increase in the effect in a dose-dependent manner |
